As usually defined, the IC50 is the point on the concentration scale where inhibition reaches its midpoint. High values mean weaker potency in that assay, low ones greater potency in that assay.

The values that follow come from patent US7759337B2, “Phthalazine compounds and methods of use” (Amgen Inc., priority 2005, dated 2010).

The test system of this experiment is production of TNF by monocytes activated with bacterial lipopolysaccharide (LPS). Put plainly: Lipopolysaccharide-activated monocyte TNF production assay. Type of experiment: cell-based. The conditions noted are these: Homo sapiens; whole blood monocyte assay (LPS induced TNF release). In a few lines:
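Adherent human PBMC-derived monocytes preincubated 60 min with nine two-fold compound dilutions, then stimulated with E. coli K532 LPS (30 ng/mL in the added medium) for 4 h at 37 °C. Supernatant TNF measured by sandwich ELISA; IC50 is the compound concentration halving TNF production, from second-order polynomial fits.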
`Cc1ccc(C(=O)NC2CC2)cc1-c1ccc2c(-c3ccc(Cl)cc3C)nncc2c1` [Example 257, 3-[1-(4-chloro-2-methylphenyl)phthalazin-6-yl]-N-cyclopropyl-4-methylbenzamide] yielded an IC50 not above 5 µM. The molecule `COc1ncncc1-c1nncc2cc(-c3cc(C(N)=O)ccc3C)ccc12` [Example 196, 3-[1-(4-methoxypyrimidin-5-yl)phthalazin-6-yl]-4-methylbenzamide] showed an IC50 not above 5 µM.

In turn, `Cc1ccc(C(=O)N(C)C)cc1-c1ccc2c(N3CCOCC3)nncc2c1` [Example 265, N,N,4-trimethyl-3-(1-morpholin-4-ylphthalazin-6-yl)benzamide] registered an IC50 not above 5 µM. `Cc1ccc(C(N)=O)cc1-c1ccc2c(Oc3cccc(Cl)c3)nncc2c1` [Example 307, 3-[1-(3-chlorophenoxy)phthalazin-6-yl]-4-methylbenzamide] returned an IC50 not above 5 µM. Regarding `Cc1ccc(C(=O)NC2CC2)cc1-c1ccc2c(N3CCN(C(=O)NCc4ccc(F)cc4)CC3)nncc2c1` [Example 139, 4-(6-{5-[(cyclopropylamino)carbonyl]-2-methylphenyl}phthalazin-1-yl)-N-(4-fluorobenzyl)piperazine-1-carboxamide], the IC50 is not above 5 µM. In the case of `Cc1ccc(C(=O)NC2CC2)cc1-c1ccc2c(N3CCNC(=O)[C@H]3C)nncc2c1` [Example 100, N-cyclopropyl-4-methyl-3-{1-[(2R)-2-methyl-3-oxopiperazin-1-yl]phthalazin-6-yl}benzamide] it was not above 5 µM; in that of `Fc1ccc(Oc2ccc3c(-c4ccccc4Cl)nncc3c2)cc1` [Example 12, 1-(2-chlorophenyl)-6-(4-fluorophenoxy)phthalazine], not above 5 µM; in that of `Cc1ccccc1-c1ccc2c(-c3ccccc3C)nncc2c1` [Example 386, 1,6-bis(2-methylphenyl)phthalazine], not above 5 µM.

`Cc1ccc2c(NC3CC3)noc2c1-c1ccc2c(N3CCOC[C@@H]3C)nncc2c1` [Example 14, N-cyclopropyl-6-methyl-7-(1-((S)-3-methylmorpholino)phthalazin-6-yl)benzo[d]isoxazol-3-amine] came in with an IC50 not above 5 µM.

Consider `COc1c(F)cccc1-c1nncc2cc(-c3cc(C(=O)NC4CC4)ccc3C)ccc12` [Example 248, N-cyclopropyl-3-[1-(3-fluoro-2-methoxyphenyl)phthalazin-6-yl]-4-methylbenzamide], for which the IC50 is not above 5 µM. Then `Cc1ccc(C(=O)NC2CC2)cc1-c1ccc2c(NC3CCC(O)CC3)nncc2c1` (centres unmarked) [Example 312, N-cyclopropyl-3-{1-[(4-hydroxycyclohexyl)amino]phthalazin-6-yl}-4-methylbenzamide], with not above 5 µM. In the case of `Cc1ccc(C(=O)NC2CC2)cc1-c1ccc2c(N(C)C3CCCCC3)nncc2c1` [Example 289, 3-{1-[cyclohexyl(methyl)amino]phthalazin-6-yl}-N-cyclopropyl-4-methylbenzamide] it was not above 5 µM; in that of `COc1ccc(-c2nncc3cc(-c4cc(C(=O)NC5CC5)ccc4C)ccc23)c(C)c1` [Example 242, N-cyclopropyl-3-[1-(4-methoxy-2-methylphenyl)phthalazin-6-yl]-4-methylbenzamide], not above 5 µM; in that of `CSc1ccc(-c2nncc3cc(-c4cc(C(N)=O)ccc4C)ccc23)c(C)c1` [Example 260, 4-methyl-3-{1-[2-methyl-4-(methylsulfanyl)phenyl]phthalazin-6-yl}benzamide], not above 5 µM. Then `Cc1ccc(C(=O)NC2CC2)cc1-c1ccc2c(N3C[C@H](C)OC[C@H]3C)nncc2c1` [Example 173, N-cyclopropyl-3-{1-[(2S,5R)-2,5-dimethylmorpholin-4-yl]phthalazin-6-yl}-4-methylbenzamide], with not above 5 µM. The molecule `Cc1ccc(C(=O)NC2CC2)cc1-c1ccc2c(N3CCS(=O)(=O)CC3)nncc2c1` [Example 133, N-cyclopropyl-3-[1-(1,1-dioxidothiomorpholin-4-yl)phthalazin-6-yl]-4-methylbenzamide] yielded an IC50 not above 5 µM. For the molecule `COc1nncc2cc(-c3cc(C(=O)NC4CC4)ccc3C)ccc12` [Example 169, N-cyclopropyl-3-(1-methoxyphthalazin-6-yl)-4-methylbenzamide], the IC50 was not above 5 µM.

Molecule `Cc1cc(F)ccc1-c1nncc2cc(Oc3ccc(F)cc3)ccc12` [Example 341, 1-(4-fluoro-2-methylphenyl)-6-(4-fluorophenoxy)phthalazine] yielded an IC50 not above 5 µM. Take `CC[C@H](C)Nc1nncc2cc(-c3cc(C(=O)NC4CC4)ccc3C)ccc12` [Example 298, N-cyclopropyl-4-methyl-3-(1-{[(1S)-1-methylpropyl]amino}phthalazin-6-yl)benzamide]: the IC50 is not above 5 µM. In the case of `Cc1ccc(C(N)=O)cc1-c1ccc2c(N3CCN4C(=O)OC[C@H]4C3)nncc2c1` [Example 284, 3-{1-[(8aR)-3-oxotetrahydro[1,3]oxazolo[3,4-a]pyrazin-7(1H)-yl]phthalazin-6-yl}-4-methylbenzamide] it was not above 5 µM; in that of `CC(=O)N1CCC(c2nncc3cc(-c4cc(C(=O)NC5CC5)ccc4C)ccc23)CC1` [Example 67, 3-(1-(1-acetylpiperidin-4-yl)phthalazin-6-yl)-N-cyclopropyl-4-methylbenzamide], not above 5 µM. In the case of `Cc1ccc(C(=O)NC2CC2)cc1-c1ccc2c(-c3ccc(C(F)(F)F)cc3C(F)(F)F)nncc2c1` [Example 11, 3-(1-(2,4-bis(trifluoromethyl)phenyl)phthalazin-6-yl)-N-cyclopropyl-4-methylbenzamide] it was not above 5 µM; in that of `Cc1ccc(C(N)=O)cc1-c1ccc2c(OCC(C)(C)C)nncc2c1` [Example 315, 4-methyl-3-[1-(neopentyloxy)phthalazin-6-yl]benzamide], not above 5 µM. Take `Cc1ccc(C(=O)NC2CC2)cc1-c1ccc2c(N3C[C@@H](C)OC[C@@H]3C)nncc2c1` [Example 112, N-cyclopropyl-3-{1-[(2R,5S)-2,5-dimethylmorpholin-4-yl]phthalazin-6-yl}-4-methylbenzamide]: the IC50 is not above 5 µM.

As to `Cc1ccc(C(N)=O)cc1-c1ccc2c(-c3ccc(F)cc3Cl)nncc2c1` [Example 222, 3-[1-(2-chloro-4-fluorophenyl)phthalazin-6-yl]-4-methylbenzamide], the IC50 is not above 5 µM. Then `Cc1ccc(C(=O)NC2CC2)cc1-c1ccc2c(N3CCC[C@H]3C(F)(F)F)nncc2c1` [Example 273, N-cyclopropyl-4-methyl-3-{1-[(2S)-2-(trifluoromethyl)pyrrolidin-1-yl]phthalazin-6-yl}benzamide], with not above 5 µM; and `Cc1ccc(C(N)=O)cc1-c1ccc2c(OC(C)C)nncc2c1` [Example 155, 3-(1-isopropoxyphthalazin-6-yl)-4-methylbenzamide], with not above 5 µM; and `CS(=O)(=O)N1CCN(c2nncc3cc(Oc4ccc(F)cc4)ccc23)CC1` [Example 353, 6-(4-fluorophenoxy)-1-[4-(methylsulfonyl)piperazin-1-yl]phthalazine], with not above 5 µM. In the case of `NC(=O)c1ccc(Cl)c(-c2ccc3c(N4CCOCC4)nncc3c2)c1` [Example 73, 4-Chloro-3-(1-morpholin-4-ylphthalazin-6-yl)benzamide] it was not above 5 µM.

In the case of `Cc1cc(C(=O)NC2CC2)sc1-c1ccc2c(N3CCOCC3)nncc2c1` [Example 46, N-cyclopropyl-4-methyl-5-(1-morpholinophthalazin-6-yl)thiophene-2-carboxamide], the IC50 is not above 5 µM.

In turn, `COC(=O)c1ccccc1Oc1ccc2c(-c3ccccc3C)nncc2c1` [Example 342, methyl 2-{[1-(2-methylphenyl)phthalazin-6-yl]oxy}benzoate] displayed a concentration for half-maximal inhibition (IC50) not above 5 µM. Take `Cc1ccc(C(=O)NC2CC2)cc1-c1ccc2c(-c3ccc(C(C)(C)C)cc3)nncc2c1` [Example 253, 3-[1-(4-tert-butylphenyl)phthalazin-6-yl]-N-cyclopropyl-4-methylbenzamide]: the IC50 is not above 5 µM. As to `Cc1ccc(C(N)=O)cc1-c1ccc2c(-c3ccc(Cl)cc3C)nncc2c1` [Example 232, 3-[1-(4-chloro-2-methylphenyl)phthalazin-6-yl]-4-methylbenzamide], the IC50 was not above 5 µM.

Consider `Cc1ccc(C(=O)NC2CC2)cc1-c1ccc2c(NCCN3CCOCC3)nncc2c1` [Example 111, N-cyclopropyl-4-methyl-3-{1-[(2-morpholin-4-ylethyl)amino]phthalazin-6-yl}benzamide], for which the IC50 is not above 5 µM. In the case of `CNc1noc2c(-c3ccc4c(-c5cccnc5C)nncc4c3)c(C)ccc12` [Example 247, N,6-dimethyl-7-[1-(2-methylpyridin-3-yl)phthalazin-6-yl]-1,2-benzisoxazol-3-amine] it was not above 5 µM; in that of `Cc1ccccc1-c1nncc2cc(Oc3cccc(F)c3)ccc12` [Example 355, 6-(3-fluorophenoxy)-1-(2-methylphenyl)phthalazine], not above 5 µM. Then `Fc1ccc(Oc2ccc3c(-c4ccsc4)nncc3c2)cc1` [Example 337, 6-(4-fluorophenoxy)-1-thien-3-ylphthalazine], with not above 5 µM; and `Cc1ccc(C(=O)NC2CC2)cc1-c1ccc2c(OCC(C)(C)C)nncc2c1` [Example 326, N-cyclopropyl-4-methyl-3-[1-(neopentyloxy)phthalazin-6-yl]benzamide], with not above 5 µM. Then `Cc1ccccc1-c1nncc2cc(-c3c(C)ccc4c(NC5CC5)noc34)ccc12` [Example 374, N-cyclopropyl-6-methyl-7-[1-(2-methylphenyl)phthalazin-6-yl]-1,2-benzisoxazol-3-amine], with not above 5 µM.

Take `Cc1ccc(C(=O)NC2CC2)cc1-c1ccc2c(N3CCN4C(=O)OC[C@H]4C3)nncc2c1` [Example 99, 3-{1-[(8aR)-3-oxotetrahydro[1,3]oxazolo[3,4-a]pyrazin-7(1H)-yl]phthalazin-6-yl}-N-cyclopropyl-4-methylbenzamide]: the IC50 was not above 5 µM. In the case of `Cc1ccc(C(N)=O)cc1-c1ccc2c(-c3ccccc3Cl)nncc2c1` [Example 156, 3-[1-(2-chlorophenyl)phthalazin-6-yl]-4-methylbenzamide] it was not above 5 µM.
